Experimental data published in patent publication US20120277265A1, “NOVEL POLYQUINOLINE DERIVATIVES AND THE THERAPEUTIC USE THEREOF” (CENTRE NATIONAL DE LA RECHERCHE SCIENTIFIQUE (C.N.R.S.), priority 2005, published 2012).
Like-named read-outs stand apart in the source and are kept apart here.

What was measured:
[1] = Competition reaction between ligand (Ls), ZnCl2 and competing chelator (Lc), UV-visible; affinity constants; type: binding; settings: for % MLs: Zn(II), EDTA as Lc, 1/1/1 at 15 μM
Protocol: An organic solvent (CH3OH, dioxane or DMSO) was added in order to achieve good solubility of all the ligands and metal complexes in the concentrations used in these experiments.
As the concentration [MLs]=x % of C is measured on the UV-visible spectra, the concentrations [Ls]=(1−x) % of C, [MLc]=(1−x) % of C and [Lc]=x % of C can be deduced therefrom and:
In these conditions, [MLs]=[MLc]; [MLs]+[Lc]=Y, y≧50 and:
When log Ks 6, these equations are not used since the percentages of metal ion which is free in the solution or chelated by the solvent or the buffer are not negligible.

Aβ1-42 = biological target: T1, Aβ1-42 (Homo sapiens, UniProt P05067); experiment: Inhibition of the precipitation of Aβ1-42 by the addition of ligand (Micro BCA assay of soluble/aggregated peptide); type: biochemical; settings: Aβ1-42 5 μM, pH 7.4; for CuCl2 % soluble Aβ: 20 μM CuCl2, 1 h 37° C. then 1 h with 200 μM ligand; for FeCl3 % soluble Aβ: 20 μM FeCl3, 1 h 37° C. then 1 h with 200 μM ligand; for ZnCl2 % soluble Aβ: 20 μM ZnCl2, 1 h 37° C. then 1 h with 200 μM ligand; for without metal % soluble Aβ: no metal salt, 1 h 37° C. then 1 h with 200 μM ligand
T1 construct: The β-amyloid peptide Aβ1-42 (Aβ1-42) was synthesised, purified (to a purity greater than 95%); made in house; host or cells: chemical peptide synthesis (no expression host)
Procedure, shortened: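 Aβ1-42 (5 μM) pre-aggregated 1 h at 37 °C with stirring in 20 mM Tris-HCl/150 mM NaCl pH 7.4, with or without CuCl2, ZnCl2 or FeCl3 (20 μM). Ligand (200 μM, DMSO) added, 1 further hour at 37 °C; after centrifugation, peptide in supernatant and pellet quantified by Micro BCA against BSA standards.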

[2] = system: Salmonella tiphimurium TA98; experiment: AMES test, TA98
Description: AMES test: The method is adapted from D. M. Maron and B. N. Ames, Mutat.
The test involves evaluating the potential of the tested molecules to induce mutation which is reverse to the histidine locus of these lines. These two lines were provided by Dr. Bruce N. Ames (University of California, Berkeley, USA). They are resistant to Ampicillin and sensitive to Tetracycline. They are not mutant toward rfa, UvγV and UvγA. The line TA98 (his D3052) contains a mutation of reading phase (GC) whereas the line TA100 (his G46) contains a substitution of base pair (GC).
The compounds to be tested were dissolved in 100% of DMSO (the solvent) and diluted logarithmically (by a factor of 10) so as to obtain 4 test concentrations of 30,000; 3,000; 300 and 30 μg/ml. Each series of 0.1 ml of stock solution to be tested, 0.1 ml of test line and of culture medium with or without 0.5 ml of enzymatic homogenate (S9) of rat liver microsome were mixed with 2 ml of molten agarose (containing 0.5 mM of histidine and 0.5 mM of biotin). This mixture was placed on the surface of a plate of minimal agarose glucose medium (30 ml for each Petri dish) so as to obtain final concentrations of compound to be tested of 3,000; 300; 30 and 3 μγ/plate. The plates were then incubated at 37° C. for 48 hours. […] The revertant colonies of the test lines were counted using a colony counter (Sigma). […] A compound inducing a number of colonies <50% of cells obtained for the solvent alone was deemed to be toxic for the bacteria tested. All the experiments were carried out in triplicate.

[3] = UV-visible spectrophotometric titration with CuCl2 (metal/ligand stoichiometry); type: binding; settings: 15 μM ligand; Tris-HCl buffer pH 7.4/organic solvent, per ligand as in Table 3 column Solvent
Protocol: An organic solvent (CH3OH, dioxane or DMSO) was added in order to achieve good solubility of the ligands and metal complexes in the concentrations used in these experiments. Exact proportions of the organic solvent/buffer mixture are specified for each UV-visible characterisation of the different ligands or metal complexes.
Aliquot portions of concentrated CuCl2 or ZnCl2 solutions (M) are added to a 15 μM ligand solution so as to induce only negligible variations in volume. After each addition, changes in absorption spectra are observed immediately and are consistent between two additions, which corresponds to a rapid complexing process. The exact absorption values relating to each ligand and the copper(II) or zinc(II) complexes thereof are detailed hereinafter in the Experimental part (in the Synthesis part for ligands and hereinafter for the metal complexes).
The stoichiometry of the different ligands (L) for Cu(II) or ZN(II) have therefore been determined spectrophotometrically by metal ion titration. In this example, for an M/L ratio increasing from 0 to 1, π→π* with transition, centred at 251 nm for the free ligand, is shifted to a lower energy with a concomitant appearance of an absorption band in the visible region of the spectrum (λmax to 383 nm), which is probably the result of an MLCT transition. For greater M/L ratios, no additional change in the UV-visible absorption spectra is observed.

[4] = Ls/ZnCl2/Lc 1/1/1 at 15 μM, solvent per ligand as in Table 3
[5] = value per plate, Addition of S9: no
[6] = value per plate, Addition of S9: yes

T1 sequence (P05067 672-713): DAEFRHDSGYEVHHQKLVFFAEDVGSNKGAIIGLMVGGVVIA

Compound	percentage of ZnLs species at equilibrium, competing ligand EDTA [1, 4] [%]	CuCl2 % soluble Aβ (Aβ1-42) [%]	FeCl3 % soluble Aβ (Aβ1-42) [%]	ZnCl2 % soluble Aβ (Aβ1-42) [%]	without metal % soluble Aβ (Aβ1-42) [%]	TA98 Cytotoxicity [2, 5] [µg]	TA98 Mutagenic effect [2, 5] [µg]	TA98 Cytotoxicity [2, 6] [µg]	TA98 Mutagenic effect [2, 6] [µg]	Complex observed by titration with Cu^II (observed L/Cu(II) stoichiometry) [3]	further results
CC(C)(c1ccc2cccc(O)c2n1)c1ccc2cccc(O)c2n1 [Compound 3, 2,2′-(2,2-propanediyl)-bis(8-hydroxyquinoline)]	30	47 ± 3	60	59	56	>3000	>3000	>3000	>3000	–	percentage of ZnLs species at equilibrium, competing ligand DTPA [1, 4]: 20%; percentage of ZnLs species at equilibrium, competing ligand EGTA [1, 4]: 100%; percentage of ZnLs species at equilibrium, competing ligand NTA [1, 4]: 100%; percentage of ZnLs species at equilibrium, competing ligand Trien [1, 4]: 100%; % MLs ([1]; Buffer/CH3OH (1/1)): 30%; % MLs ([1]; Buffer/DMSO (2/8)): 35%; % MLs ([1]; Buffer/dioxane (2/8)): 33%; % MLs ([1]; CH3OH): 40%; number of Lc equivalents making it possible to form 50% of ZnLs, Lc = EDTA ([1]; mixture of Ls (15 μM, 1 equivalent) and ZnCl2 (1/1, mol/mol)): 0.7 eq
c1cnc2c(Nc3cccc4cccnc34)cccc2c1 [Compound 12, Bis(8-quinoline)amine]	–	69 ± 2	59	52	69	>3000	–	>3000	–	LCu^II(1/1)	Log KZn^II ([1]; affinity constant at pH = 7.4, solvent per ligand as in Table 3 column Solvent, Equation 8 (a) or 7 (b)): ≈6; TA98 Mutagenic effect [2]: >3000 µg
CC(C)(c1ccc2c(Cl)ccc(O)c2n1)c1ccc2c(Cl)ccc(O)c2n1 [Compound 4, 2,2′-(2,2-Propanediyl)-bis(5-chloro-8-hydroxyquinoline)]	20	30	45	49	55	–	–	–	–	Cu^II(1/1)	–
Oc1cccc2ccc(C(F)(F)c3ccc4cccc(O)c4n3)nc12 [Compound 5, 2,2′-(Difluoromethanediyl)-bis(8-hydroxyquinoline)]	55	51 ± 1	52	50	60	>3000	>3000	>3000	>3000	LCu^II(1/1)	–
O=C(c1ccc2cccc(O)c2n1)c1ccc2cccc(O)c2n1 [Compound 6, Bis(8-hydroxy-2-quinoline)methanone]	75	58 ± 3	51	54	56	–	–	–	–	LCu^II(1/1)	–
